Three molecules from PMC6771786, “Closing the gap: yeast electron‐transferring flavoprotein links the oxidation of D‐lactate and D‐α‐hydroxyglutarate to energy production via the respiratory chain” (The Febs Journal, 2019) can be followed below.

Numbering of substitutions follows the chain as printed. Names may count otherwise.

For series [1], the target named is T1, Dld2 (D-lactate dehydrogenase 2) (Saccharomyces cerevisiae, UniProt P46681).
T1 construct: produced in Komagataella phaffii KM71H, purified
T1 sequence (P46681 1-530): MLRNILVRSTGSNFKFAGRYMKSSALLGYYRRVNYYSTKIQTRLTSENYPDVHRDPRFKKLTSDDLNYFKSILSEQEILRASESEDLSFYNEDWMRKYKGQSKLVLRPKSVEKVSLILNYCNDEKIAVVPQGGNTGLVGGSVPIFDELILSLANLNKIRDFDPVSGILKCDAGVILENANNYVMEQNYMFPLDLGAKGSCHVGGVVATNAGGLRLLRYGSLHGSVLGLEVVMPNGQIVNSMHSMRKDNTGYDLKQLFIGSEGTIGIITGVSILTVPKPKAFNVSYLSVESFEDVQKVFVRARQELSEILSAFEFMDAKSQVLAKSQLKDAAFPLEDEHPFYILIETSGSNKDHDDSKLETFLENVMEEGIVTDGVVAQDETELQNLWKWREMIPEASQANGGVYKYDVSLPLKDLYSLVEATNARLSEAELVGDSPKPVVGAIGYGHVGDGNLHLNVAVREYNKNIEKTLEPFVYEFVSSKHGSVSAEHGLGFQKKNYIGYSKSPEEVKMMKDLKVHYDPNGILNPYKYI
Description: stopped-flow flavin reduction, hyperbolic fit. In kind it is biochemical. To be noted: anaerobic reductive half reaction; 50 mM HEPES, 150 mM NaCl pH 7, 25 °C; 450 nm; fast (first) phase of reduction. From the text: stopped-flow flavin reduction, hyperbolic fit on Dld2 (D-lactate dehydrogenase 2)

Series [2] has as its target T2, yETF (electron-transferring flavoprotein of Saccharomyces cerevisiae) (Saccharomyces cerevisiae, UniProt P42940+Q12480).
T2 construct: gene AIM45; heterodimer (alpha 38 kDa, beta 37 kDa), N-terminal hexahistidine tag on beta subunit (pETM11-His TEV), produced in E. coli Rosetta (DE3)-pLysS
T2 sequence (Q12480 15-344): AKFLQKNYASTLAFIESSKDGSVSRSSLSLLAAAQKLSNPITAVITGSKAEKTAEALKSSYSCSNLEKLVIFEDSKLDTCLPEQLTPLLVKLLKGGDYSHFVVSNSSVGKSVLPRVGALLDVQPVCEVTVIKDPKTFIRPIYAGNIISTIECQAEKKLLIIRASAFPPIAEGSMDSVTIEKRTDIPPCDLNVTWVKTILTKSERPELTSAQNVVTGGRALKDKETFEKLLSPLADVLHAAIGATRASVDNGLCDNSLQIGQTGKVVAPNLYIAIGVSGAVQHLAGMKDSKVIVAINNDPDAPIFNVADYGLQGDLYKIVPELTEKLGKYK
T2 sequence (P42940 1-261): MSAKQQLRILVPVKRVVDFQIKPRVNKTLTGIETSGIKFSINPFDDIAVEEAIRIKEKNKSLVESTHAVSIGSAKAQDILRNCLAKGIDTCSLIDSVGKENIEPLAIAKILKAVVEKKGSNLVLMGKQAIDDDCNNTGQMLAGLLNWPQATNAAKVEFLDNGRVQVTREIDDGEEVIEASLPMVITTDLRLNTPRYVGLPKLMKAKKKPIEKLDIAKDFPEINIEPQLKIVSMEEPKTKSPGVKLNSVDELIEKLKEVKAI
Description: UV-visible spectrum, native vs SDS-denatured; HPLC-DAD. The following applies: co-purified cofactor; 50 mM HEPES pH 7, 1 mM DTT, 25 °C. The format is binding.

Series [3] concerns the target T3, hETF (ETF from Homo sapiens) (Homo sapiens, UniProt P13804+P38117).
T3 construct: gene ETFA
T3 sequence (P13804 20-333): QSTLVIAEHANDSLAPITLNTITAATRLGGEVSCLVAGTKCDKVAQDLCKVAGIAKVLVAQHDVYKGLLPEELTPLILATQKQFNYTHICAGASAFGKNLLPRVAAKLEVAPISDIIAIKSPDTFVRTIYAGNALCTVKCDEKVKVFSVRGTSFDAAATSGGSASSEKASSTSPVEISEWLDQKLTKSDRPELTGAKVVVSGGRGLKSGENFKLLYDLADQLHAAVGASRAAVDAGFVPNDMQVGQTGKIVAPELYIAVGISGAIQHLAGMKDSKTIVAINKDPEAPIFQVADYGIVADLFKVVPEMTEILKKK
T3 sequence (P38117 2-255): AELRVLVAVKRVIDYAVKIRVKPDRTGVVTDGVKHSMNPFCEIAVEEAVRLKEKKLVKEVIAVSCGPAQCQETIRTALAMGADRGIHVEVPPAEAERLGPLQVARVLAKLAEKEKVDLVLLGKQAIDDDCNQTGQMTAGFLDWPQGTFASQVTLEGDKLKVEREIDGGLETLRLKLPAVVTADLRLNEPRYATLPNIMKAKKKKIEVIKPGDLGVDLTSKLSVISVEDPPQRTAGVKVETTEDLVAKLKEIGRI
Description: UV-visible photoreduction of bound flavin. To be noted: co-purified cofactor; 50 mM HEPES pH 7, 1 mM DTT, anaerobic. The format is binding.

The target in series [4] is T4, hETF (ETF from Homo sapiens) (Homo sapiens, UniProt P13804+P38117, P38117:Y16F).
T4 construct: gene ETFA
T4 sequence (P13804 20-333): T3 sequence (P13804 20-333)
T4 sequence (P38117 2-255 Y16F): T3 sequence (P38117 2-255) with Y15F
Description: UV-visible photoreduction of bound flavin. The format is binding. To be noted: co-purified cofactor; 50 mM HEPES pH 7, 1 mM DTT, anaerobic.

Substrate in the series “purified protein”: O=C(O)CC[C@@H](O)C(=O)O
The series can be described thus: purified protein. In kind it is biochemical, Saccharomyces cerevisiae. The following applies: 125 µM 2,6-dichlorophenol indophenol as acceptor, aerobic, 50 mM HEPES, 150 mM NaCl pH 7, 25 °C, apparent.

`C[C@@H](O)C(=O)O` [D‐lactate]: the Kd in series [1] turned out to be 15 ± 1 mM.
With `Cc1cc2nc3c(=O)[nH]c(=O)nc-3n(C[C@H](O)[C@H](O)[C@H](O)COP(=O)(O)OP(=O)(O)OC[C@H]3O[C@@H](n4cnc5c(N)ncnc54)[C@H](O)[C@@H]3O)c2cc1C` [FAD], in series [2], the “UV-visible spectrum, native vs SDS-denatured; HPLC-DAD” value is listed as “absorption spectrum of denatured yETF further indicate the presence of an FAD chromophore”. Besides, the “UV-visible photoreduction of bound flavin” value in series [3] is “hETF wild‐type (C), and hETF‐βTyr16Phe (D) in the course of the photoreduction: oxidized FAD”; in series [4], “hETF‐βTyr16Phe (D) in the course of the photoreduction: oxidized FAD”.

B1: Dld2 (D-lactate dehydrogenase 2) (Saccharomyces cerevisiae S288C) (protein)
chain: T1 sequence (P46681 1-530)
notes: produced in Komagataella phaffii KM71H, purified
B1: in the series “purified protein”, the Km was 350 ± 50 µM, the kcat came out at 0.42 ± 0.02 s⁻¹ and the kcat/Km is 1200 ± 300 M⁻¹ s⁻¹.
